ChEMBL document CHEMBL4482319, “Targeting cyb5r3” (2016)
Values belong to the compound of their own block, whether it stands above or below them. Calls of active or inactive are those of the source. No cut-off for these calls is given here.

Legend:
Homo sapiens = species on record: Homo sapiens; test: Reduction in systolic blood pressure in patient with acute decompensated heart failure during phase II clinical trial; type: functional
[1] = target: T1, NADH-cytochrome b5 reductase (Homo sapiens) (UniProt P00387); test: Inhibition of Cyb5R3 (unknown origin) expressed in HEK293 cells at 21.86 uM incubated for 24 hrs in presence of potassium ferricyanide and NADH by spectrophotometric assay; type: cell-based
T1 sequence (whole entry): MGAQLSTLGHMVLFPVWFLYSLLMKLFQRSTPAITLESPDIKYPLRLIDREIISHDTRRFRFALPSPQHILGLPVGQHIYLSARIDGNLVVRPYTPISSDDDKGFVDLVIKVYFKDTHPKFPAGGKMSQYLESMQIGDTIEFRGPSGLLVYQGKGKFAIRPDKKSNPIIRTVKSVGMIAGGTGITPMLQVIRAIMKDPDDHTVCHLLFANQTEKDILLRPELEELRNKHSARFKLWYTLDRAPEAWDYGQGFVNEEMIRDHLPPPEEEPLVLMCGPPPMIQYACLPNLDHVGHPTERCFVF

[2] = target: T2, NADH-cytochrome b5 reductase 3 (Rattus norvegicus) (UniProt P20070); test: Inhibition of Cyb5R3 in rat aortic VSMs assessed as reduction in decrease in sGC protein by Western blot analysis; conditions: concentration not given here
T2 sequence (whole entry): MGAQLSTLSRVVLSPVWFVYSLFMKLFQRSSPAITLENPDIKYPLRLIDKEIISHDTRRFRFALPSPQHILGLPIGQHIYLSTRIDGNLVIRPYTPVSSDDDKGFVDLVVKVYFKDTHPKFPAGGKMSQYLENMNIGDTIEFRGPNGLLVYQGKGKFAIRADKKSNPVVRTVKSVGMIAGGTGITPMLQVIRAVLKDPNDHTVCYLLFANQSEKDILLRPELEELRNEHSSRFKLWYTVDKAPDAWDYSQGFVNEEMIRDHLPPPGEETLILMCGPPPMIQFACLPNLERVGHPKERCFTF

[3] = target: T2, NADH-cytochrome b5 reductase 3 (Rattus norvegicus); test: Inhibition of Cyb5R3 in rat aortic VSMs assessed as reduction in decrease in basal cGMP levels
[4] = target: T2, NADH-cytochrome b5 reductase 3 (Rattus norvegicus); test: Inhibition of Cyb5R3 in DETA NONOate-stimulated rat aortic VSMs assessed as reduction in NO-induced cGMP production in presence of sGC activator Bay 58-2667
[5] = target: T2, NADH-cytochrome b5 reductase 3 (Rattus norvegicus); test: Inhibition of Cyb5R3 in rat thoracodorsal arteries assessed as inhibition of DETA NONOate-induced response incubated for 24 hrs by pressure myography
[6] = target: T2, NADH-cytochrome b5 reductase 3 (Rattus norvegicus); test: Inhibition of Cyb5R3 in rat thoracodorsal arteries assessed as inhibition of DETA NONOate-induced response incubated for 24 hrs in presence of sGC activator Bay 58-2667 by pressure myography
Mus musculus [7] = test: Induction of hypertension in C57B1/6 mouse assessed as increase in mean arterial pressure at 10 mg/kg/day dosed via osmotic mini pumps for 14 days; type: functional, organism-based
Mus musculus [8] = test: Induction of hypertension in C57B1/6 mouse assessed as increase in systolic pressure at 10 mg/kg/day dosed via osmotic mini pumps for 14 days; type: functional, organism-based
Mus musculus [9] = test: Induction of hypertension in C57B1/6 mouse assessed as increase in diastolic pressure at 10 mg/kg/day dosed via osmotic mini pumps for 14 days; type: functional, organism-based

SMILES: O=C(O)CCCCN(CCc1ccccc1OCc1ccc(CCc2ccccc2)cc1)Cc1ccc(C(=O)O)cc1
Activity (Homo sapiens): 16.6 mmHg

inhibition [1]: > 80%
SMILES: Oc1cc(CSc2ccccc2)nc(S)n1

inhibition [2]: < 75%
inhibition [3]: Active
inhibition [4]: inactive
inhibition [5]: Active
inhibition [6]: inactive
SMILES: O=c1cc(CS[C@@H]2Nc3ccccc3O2)[nH]c(=S)[nH]1
Activity (Mus musculus [7]): Active
Activity (Mus musculus [8]): Active
Activity (Mus musculus [9]): Active
